Measured values as given in patent publication US20140045832A1, “Insulin-Like Growth Factor-1 Receptor Inhibitors” (PIRAMAL ENTERPRISES LIMITED, priority 2011, published 2014).

Columns and labels:
[1] = target: T1, human IGF-1R (Homo sapiens, UniProt P08069); assay: In vitro IGF-1R kinase assay (HTRF); assay type: biochemical; settings: intracellular kinase domain GST fusion, ATP 20 μM, 1 hour at 23° C., read-out: IGFIR-Activity
T1 construct: IGFRK and IRK enzyme used for the assay was intracellular kinase domain of human IGF-1R and human IR; made in house
Method: The in vitro kinase assays using IGF-1R and IR kinase GST fusion proteins were conducted using a homogeneous time-resolved fluorescence (HTRF) format. […] The standard enzyme reaction buffer consisted of 50 mM Tris HCL (pH: 7.4), 1 mM EGTA, 10 mM MgCl2, 2 mM DTT, 0.01% Tween-20, IGF-1R/IR kinase enzyme, poly GT peptide substrate (Perkin Elmer [Ulight Glu-Tyr (4:1)]n) and ATP [concentration equivalent to Kmapp]. […] Briefly, 2.5 μL enzyme and 2.5 μL inhibitor was pre-incubated for 10 minutes at 23° C. followed by the addition of 2.5 μL of poly GT substrate (final concentration of 50 nM). Reaction was initiated with the addition of 2.5 μL of ATP (final concentration of 20 μM for IGF-1R assay and 10 μM for IR assay). After 1 hour incubation at 23° C., the kinase reaction was stopped with the addition of 5 μL EDTA (final concentration of 10 mM in 20 μL). Europium cryptate—labeled antiphosphotyrosine antibody PY20 (5 μL) was added (final concentration of 2 nM) and the mixture was allowed to equilibrate for 1 hour at 23° C. followed by reading the plate in an Envision plate reader. The intensity of light emission at 665 nm was directly proportional to the level of substrate phosphorylation. The IC50 values for inhibitors were determined by a four-parameter sigmoidal curve fit (Sigma plot or Graph pad).
IGFRK and IRK enzyme used for the assay was intracellular kinase domain of human IGF-1R and human IR cloned and expressed as GST fusion proteins using the baculovirus expression system and purified using glutathione—Sepharose column.

[2] = test system: MCF7 cell line; assay: Anti-proliferative assay (MTS/CCK-8), MCF7; assay type: cell-based; settings: Homo sapiens; MCF7 (breast cancer) cells, 100 ng/mL IGF without FCS, 72 hours; read-out: Anti-proliferation IC50 (μM) MCF7 cell line
Method: (§1) Anti-proliferative potential of compounds was tested using various cell lines (details provided in Table 2) by MTS (Promega, Cat # G1111), a tetrazolium compound ((3-(4,5-dimethylthiazol-2-yl)-5-(3-carboxymethoxyphenyl)-2-(4-sulphophenyl)-2H-tetrazolium, inner salt; MTS) and Cell Counting kit-8 (CCK-8 a Dojindo's highly water-soluble tetrazolium salt of WST-8 [2-(2-methoxy-4-nitrophenyl)-3-(4-nitrophenyl)-5-(2,4-disulfophenyl)-2H-tetrazolium, monosodium salt]). MTS is a colorimetric assay for determining the number of viable cells in proliferation, cytotoxicity or chemosensitivity assays. This is used with an electron coupling reagent PMS (Phenazine methosulfate). MTS is bioreduced by cells into a formazan that is soluble in tissue culture medium. The absorbance of the formazan at 490 nm can be measured directly from 96 well assay plates without additional processing. Dehydrogenase enzymes found in metabolically active cells accomplish the conversion of MTS into the aqueous soluble formazan. The quantity of formazan product is directly proportional to the number of living cells in culture. In CCK-8, WST-8 is reduced by dehydrogenases in cells to give a yellow colored product formazan, which is measured at 450 nm.
(§2) For experimental purposes, cells were seeded at a density of 3000-5000 cells per well in 180 μL/well volume in transparent 96 well tissue culture plate (NUNC, USA) and incubated overnight at 37° C., 5% CO2. […] Plates were incubated for 3-4 hours and absorbance was measured at 490 nm on Spectrophotometer (SpectraMax, Molecular Devices). Percentage cytotoxicity and IC50 was calculated using SoftMax software. […] After 4 hour incubation, the absorbance was determined at 450 nm using Spectrophotometer (SpectraMax, Molecular Devices). […]

[3] = test system: HT29 cell line; assay: Anti-proliferative assay (MTS/CCK-8), HT29; assay type: cell-based; settings: Homo sapiens, HT-29; HT29 (colon cancer) cells, 100 ng/mL IGF without FCS, 72 hours; read-out: Anti-proliferation IC50 (μM) HT29 cell line
Method: as §1, §2

[4] = target: T2, CYP3A4 (Homo sapiens, UniProt P08684); assay: CYP inhibition fluorescence assay (rhCYP450, Vivid Invitrogen kit); assay type: in vitro ADME; settings: recombinant human CYP3A4, 10 μM compound, read-out: % inhibition of CYP 3A4 at 10 μM
T2 construct: purchased Invitrogen (Vivid screening kits)
Method: The % inhibition @ 10 μM data was generated from an rhCYP450/fluorescence assay according to the Vivid Invitrogen screening kits. The compounds were screened against CYP 3A4 isoform because CYP3A4 is responsible for the metabolism of approximately 50-60% of clinical drugs. The lower the percentage inhibition, the lower the CYP450 inhibitory liability of that specific compound.

T1 sequence (P08069 999-1274 limits assumed): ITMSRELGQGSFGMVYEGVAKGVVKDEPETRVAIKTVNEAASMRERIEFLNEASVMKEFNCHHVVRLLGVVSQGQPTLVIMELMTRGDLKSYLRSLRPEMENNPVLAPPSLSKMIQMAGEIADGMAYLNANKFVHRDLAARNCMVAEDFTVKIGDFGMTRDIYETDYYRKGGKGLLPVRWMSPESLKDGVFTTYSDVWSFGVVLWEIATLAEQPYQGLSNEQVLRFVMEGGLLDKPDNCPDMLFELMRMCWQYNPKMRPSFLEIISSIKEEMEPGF
T2 sequence (P08684 whole entry): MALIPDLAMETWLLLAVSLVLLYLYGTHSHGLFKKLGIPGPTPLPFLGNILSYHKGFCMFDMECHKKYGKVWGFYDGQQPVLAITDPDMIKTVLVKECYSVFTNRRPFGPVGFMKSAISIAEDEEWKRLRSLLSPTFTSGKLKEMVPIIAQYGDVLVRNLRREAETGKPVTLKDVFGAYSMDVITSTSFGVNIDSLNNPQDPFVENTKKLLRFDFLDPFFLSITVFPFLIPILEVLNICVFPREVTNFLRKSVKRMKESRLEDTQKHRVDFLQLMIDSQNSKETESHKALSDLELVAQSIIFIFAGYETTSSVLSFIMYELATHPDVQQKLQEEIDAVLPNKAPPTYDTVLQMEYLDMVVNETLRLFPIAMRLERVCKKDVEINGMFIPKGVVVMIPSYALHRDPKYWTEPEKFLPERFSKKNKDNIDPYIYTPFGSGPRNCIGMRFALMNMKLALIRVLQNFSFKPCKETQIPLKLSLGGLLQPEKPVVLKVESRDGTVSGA

| SMILES | IC50 [1] [nM] | IC50 [2] [µM] | IC50 [3] [µM] | inhibition at 10 µM [4] [%] |
| --- | --- | --- | --- | --- |
| N#CCCNc1cc(Cl)cc2c(S(=O)(=O)N3CCO[C@H](COc4ccccc4)C3)c(C(N)=O)[nH]c12 [Compound 19, (S)-5-chloro-7-(2-cyanoethylamino)-3-(2-(phenoxymethyl)morpholinosulfonyl)-1H-indole-2-carboxamide] | 16 | < 1 | 5.3 |  |
| CCOC(=O)N1CCC(Nc2cc(Cl)cc3c(S(=O)(=O)N4CCO[C@H](COc5ccccc5)C4)c(C(N)=O)[nH]c23)CC1 [Compound 34, (S)-ethyl 4-(2-carbamoyl-5-chloro-3-(2-(phenoxymethyl)morpholinosulfonyl)-1H-indol-7-ylamino)piperidine-1-carboxylate] | 68.5 | 0.9 | 1.7 | 47 |
| NC(=O)c1[nH]c2c(NC3CCOCC3)cc(Cl)cc2c1S(=O)(=O)N1CCO[C@H](COc2ccccc2)C1 [Compound 20, (S)-5-chloro-3-(2-(phenoxymethyl)morpholinosulfonyl)-7-(tetrahydro-2H-pyran-4-ylamino)-1H-indole-2-carboxamide] | < 100 | 0.8 | 2.8 |  |
